Data reported in patent US20120095055A1, “HEXAHYDROCYCLOPENTYL[f]INDAZOLE 5-HYDROXYMETHYL ETHANOLS AND DERIVATIVES THEREOF AS SELECTIVE GLUCOCORTICOID RECEPTOR MODULATORS” (Merck Sharp & Dohme, Corp., priority 2009, published 2012).

Target: T1, human GR (Homo sapiens, UniProt P04150)
T1 construct: naturally expresses the human GR; endogenous in cells
T1 sequence (P04150 1-777): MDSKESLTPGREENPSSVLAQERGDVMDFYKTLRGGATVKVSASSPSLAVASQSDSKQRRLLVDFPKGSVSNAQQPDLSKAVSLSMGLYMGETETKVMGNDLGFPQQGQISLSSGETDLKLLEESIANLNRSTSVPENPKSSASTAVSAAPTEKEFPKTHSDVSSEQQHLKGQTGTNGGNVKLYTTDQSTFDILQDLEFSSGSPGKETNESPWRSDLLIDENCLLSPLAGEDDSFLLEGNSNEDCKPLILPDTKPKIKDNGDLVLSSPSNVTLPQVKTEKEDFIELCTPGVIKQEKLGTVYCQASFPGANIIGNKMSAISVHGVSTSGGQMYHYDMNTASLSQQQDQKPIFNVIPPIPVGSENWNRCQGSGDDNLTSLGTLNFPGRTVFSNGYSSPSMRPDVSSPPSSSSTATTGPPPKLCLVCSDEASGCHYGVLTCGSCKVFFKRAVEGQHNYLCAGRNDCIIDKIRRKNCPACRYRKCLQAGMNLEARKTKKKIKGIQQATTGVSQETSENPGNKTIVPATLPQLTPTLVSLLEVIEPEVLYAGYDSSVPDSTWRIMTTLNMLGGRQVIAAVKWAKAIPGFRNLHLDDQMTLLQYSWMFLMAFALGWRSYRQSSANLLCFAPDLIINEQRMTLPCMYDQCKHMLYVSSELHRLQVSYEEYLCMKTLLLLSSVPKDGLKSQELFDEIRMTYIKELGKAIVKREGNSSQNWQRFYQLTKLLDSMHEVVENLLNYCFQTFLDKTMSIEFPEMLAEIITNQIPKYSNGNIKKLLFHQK
Test: Trans-Activation Modulation of Glucocorticoid Receptor Assay (GRAMMER), MMTV-LUC reporter in A549 cells
Type: cell-based
Conditions: for Transactivation A549 Cells GRAMMER Emax (%): Emax relative to the activity obtained with 300 nM dexamethasone; for EC50: inflection point (IP), MMTV-LUC reporter, read-out: Transactivation A549 Cells GRAMMER IP; for Emax: A549, Emax relative to the activity obtained with 300 nM dexamethasone, read-out: Transactivation A549 Cells GRAMMER Emax (%)
Excerpt: This assay assesses the ability of test compounds to control transcription from the MMTV-LUC reporter gene in lung adenocarcinoma A549 cells or HeLa cells, a human […] cell line that naturally expresses the human GR. The assay measures induction of a modified MMTV LTR/promoter linked to the LUC reporter gene.
The routine transient assay consists of plating 7,000-25,000 cells/well of a white, clear-bottom 96-well plate. Alternatively, 384-well plates can be used at a cell concentration of 10,000/well. The media that the cells are plated in is “exponential growth medium” which consists of phenol red-free RPMI1640 containing 10% FBS, 4 mM L-glutamine, 20 mM HEPES, 10 ug/mL human insulin, and 20 ug/mL gentamicin. Incubator conditions are 37° C. and 5% CO2. The transfection is done in batch mode. The cells are trypsinized and counted to the right cell number in the proper amount of fresh media. It is then gently mixed with the FuGene6/DNA mix and plated onto the 96 or 384-well plate, all the wells receive 100 uL or 40 uL, respectively, of medium+lipid/DNA complex then incubated 37° C. overnight. The transfection cocktail consists of serum-free OptiMEM, FuGene6 reagent and DNA. The manufacturer's (Roche Biochemical) protocol for cocktail setup is as follows: The lipid to DNA ratio is approximately 2.5:1 and the incubation time is 20 min at room temperature. Sixteen to 24 hours after transfection, the cells are treated with dexamethasone to a final concentration of 10 nM as well as the compound of interest, such that final DMSO (vehicle) concentration is equal to or less than 1%. Each plate also contains samples that are treated with 10 nM dexamethasone alone, which is used as the 100% activity control. The cells are exposed to the compounds for 24 hours. After 24 hours, the cells are lysed by a Promega cell culture lysis buffer for approximately 30 min and then the luciferase activity in the extracts is assayed in the 96-well format luminometer. In 384-well format, Steady-Glo (Promega) or Steady-Lite (PerkinElmer) can be used by adding an equal volume of reagent to the media present in each well. Activity induced by 10 nM dexamethasone alone is set at 100% activity. Antagonist activity is calculated by determining the decrease in dexamethasone-induced activity in response to compound treatment relative to samples that were treated with dexamethasone alone. Results are expressed as % inhibition of 10 nM dexamethasone activity or as fold of 10 nM dexamethasone activity. This transactivation assay can be performed in an agonist and antagonist mode to identify these different activities.
Activity of test compounds is calculated as the Emax relative to the activity obtained with 300 nM dexamethasone. Activity of test compounds is calculated as the Emax relative to the activity obtained with 300 nM DEX. The exemplified tissue selective glucocorticoid receptor modulators of the present invention display agonist activity in this assay of greater than 5% and less than 100%, and maximal transactivation activity less then maximal transrepression activity. […]

| SMILES | Transactivation A549 Cells GRAMMER Emax (%) | EC50 [µM] | Emax [%] |
| --- | --- | --- | --- |
| C[C@]12Cc3cnn(-c4ccccc4)c3C=C1CC[C@@]2(CO)CC(O)c1ccccn1 (single isomer, unassigned) [Example 23b] | 47.7 | 0.0632 | – |
| C[C@]12Cc3cnn(-c4ccc(F)cc4)c3C=C1CC[C@@]2(CO)CC(O)c1ccccc1 (single isomer, unassigned) [Example 13b] | 57.5 | 0.0072 | – |
| C[C@]12Cc3cnn(-c4ccccc4)c3C=C1CC[C@@]2(CO)CC(O)c1ccccn1 (single isomer, unassigned) [Example 23a] | – | 0.0497 | 39.4 |
| C[C@]12Cc3cnn(-c4ccc(F)cc4)c3C=C1CC[C@@]2(CO)CC(O)c1ccc(F)cn1 (single isomer, unassigned) [Example 22b] | 74.3 | 0.0642 | – |
| CC(O)(C[C@]1(CO)CCC2=Cc3c(cnn3-c3ccc(F)cc3)C[C@@]21C)c1cccnc1 (single isomer, unassigned) [Example 25b] | 7.6 | 0.401 | – |
| C[C@]12Cc3cnn(-c4ccc(F)cc4)c3C=C1CC[C@@]2(CO)CC1OC(=O)c2ccccc21 (single isomer, unassigned) [Example 12b] | 54.2 | 0.0333 | – |
| C[C@]12Cc3cnn(-c4cccc(F)c4)c3C=C1CC[C@@]2(CO)CC(O)c1ccccn1 (single isomer, unassigned) [Example 19b] | 24.2 | 0.0948 | – |
| C[C@]12Cc3cnn(-c4ccc(F)cc4)c3C=C1CC[C@@]2(CO)CC(O)C(F)(F)F (single isomer, unassigned) [Example 28a] | – | 0.107 | 60.4 |
| C[C@]12Cc3cnn(-c4ccc(F)cc4)c3C=C1CC[C@@]2(CO)CC(O)c1ccncc1 (single isomer, unassigned) [Example 17a] | – | 0.101 | 26.4 |
| C[C@]12Cc3cnn(-c4ccc(F)cc4)c3C=C1CC[C@@]2(CO)CC(O)c1ncccc1F (single isomer, unassigned) [Example 10a] | – | 0.0237 | 56.6 |
| C[C@]12Cc3cnn(-c4cccc(F)c4)c3C=C1CC[C@@]2(CO)CC(O)c1ccccn1 (single isomer, unassigned) [Example 19a] | – | 0.0419 | 43.7 |
| C[C@]12Cc3cnn(-c4ccc(F)cc4)c3C=C1CC[C@@]2(CO)CC1OC(=O)c2ccccc21 (single isomer, unassigned) [Example 12a] | – | 0.127 | 47.4 |
| C[C@]12Cc3cnn(-c4ccc(F)cc4)c3C=C1CC[C@@]2(CO)CC(O)c1cccnc1 (single isomer, unassigned) [Example 15a] | – | 0.0681 | 52.7 |
| Cc1ccc(C(O)C[C@]2(CO)CCC3=Cc4c(cnn4-c4ccc(F)cc4)C[C@@]32C)cc1 (single isomer, unassigned) [Example 2b] | – | 0.316 | 45.5 |
| C[C@]12Cc3cnn(-c4cccc(F)c4)c3C=C1CC[C@@]2(CO)CC(O)c1cccnc1 (single isomer, unassigned) [Example 27b] | 15.4 | 0.634 | – |
| COc1ccc(C(O)C[C@]2(CO)CCC3=Cc4c(cnn4-c4ccc(F)cc4)C[C@@]32C)nc1 (single isomer, unassigned) [Example 24b] | 4.5 | 1 | – |

The next lines start with the values.

| Transactivation A549 Cells GRAMMER Emax (%) | EC50 [µM] | Emax [%] | SMILES |
| --- | --- | --- | --- |
| 4.3 | 0.653 | – | COc1cccnc1C(O)C[C@]1(CO)CCC2=Cc3c(cnn3-c3cccc(F)c3)C[C@@]21C (single isomer, unassigned) [Example 26b] |
| – | 0.0184 | 38.3 | Cc1ccc(C(O)C[C@]2(CO)CCC3=Cc4c(cnn4-c4ccc(F)cc4)C[C@@]32C)nc1 (stereo partly drawn) [Example 16, 2-[(4αS,5R)-1-(4-fluorophenyl)-5-(hydroxymethyl)-4α-methyl-1,4,4α,5,6,7-hexahydrocyclopenta[f]indazol-5-yl]-1-(5-methylpyridin-2-yl)ethanol] |
| 56.0 | 0.0264 | – | C[C@]12Cc3cnn(-c4ccc(F)cc4)c3C=C1CC[C@@]2(CO)CC(O)c1ccccn1 (single isomer, unassigned) [Example 1b] |
| – | 0.0288 | 63.2 | C[C@]12Cc3cnn(-c4ccc(F)cc4)c3C=C1CC[C@@]2(CO)CC(O)c1ccc(F)cn1 (single isomer, unassigned) [Example 22a] |
| – | 0.0588 | 60.2 | C[C@]12Cc3cnn(-c4ccc(F)cc4)c3C=C1CC[C@@]2(CO)CC(O)c1cccc(C(F)(F)F)c1 (single isomer, unassigned) [Example 7a] |
| 62.4 | 0.0305 | – | C[C@]12Cc3cnn(-c4ccc(F)cc4)c3C=C1CC[C@@]2(CO)CC(O)c1cc(F)cc(Cl)c1 (single isomer, unassigned) [Example 6a] |
| – | 0.332 | 41.8 | C[C@]12Cc3cnn(-c4ccc(F)cc4)c3C=C1CC[C@@]2(CO)CC1OC(=O)c2ccccc21 (stereo partly drawn) [Example 11, 3-{[(4αS,5R)-1-(4-fluorophenyl)-5-(hydroxymethyl)-4α-methyl-1,4,4α,5,6,7,7a,8-octahydrocyclopenta[f]indazol-5-yl]methyl}-2-benzofuran-1(3H)-one] |
| 84.7 | 0.124 | – | C[C@]12Cc3cnn(-c4ccc(F)cc4)c3C=C1CC[C@@]2(CO)CC(O)c1cc(F)cc(Cl)c1 (single isomer, unassigned) [Example 6b] |
| 32.4 | 0.152 | – | COc1cccnc1C(O)C[C@]1(CO)CCC2=Cc3c(cnn3-c3ccc(F)cc3)C[C@@]21C (single isomer, unassigned) [Example 21a] |
| 42.3 | 0.107 | – | C[C@]12Cc3cnn(-c4ccc(F)cc4)c3C=C1CC[C@@]2(CO)CC(O)C(F)(F)F (single isomer, unassigned) [Example 28b] |
| 67.0 | 0.0124 | – | C[C@]12Cc3cnn(-c4ccc(F)cc4)c3C=C1CC[C@@]2(CO)CC(O)c1ncccc1F (single isomer, unassigned) [Example 10b] |
| 130.3 | 0.0167 | – | C[C@]12Cc3cnn(-c4ccc(F)cc4)c3C=C1CC[C@@]2(CO)CC(O)c1ccccc1Cl (single isomer, unassigned) [Example 3b] |
| 23.1 | 0.187 | – | C[C@]12Cc3cnn(-c4ccc(F)cc4)c3C=C1CC[C@@]2(CO)CC(O)C1CC1 (single isomer, unassigned) [Example 20a, 1-cyclopropyl-2-[(4αS)-1-(4-fluorophenyl)-5-(hydroxymethyl)-4α-methyl-1,4,4α,5,6,7-hexahydrocyclopenta[f]indazol-5-yl]ethanol] |
| 64.8 | 0.0402 | – | COc1cccnc1C(O)C[C@]1(CO)CCC2=Cc3c(cnn3-c3ccc(F)cc3)C[C@@]21C (single isomer, unassigned) [Example 21b] |
